Data on four compounds can be found in ChEMBL document CHEMBL3862033 (J Med Chem, 2016).

For one series, the target named is Adenosine receptor A2a (Homo sapiens, UniProt P29274). Put plainly: Displacement of [3 H]2-[p-(2-carboxyethyl)phenyl-ethylamino]-5'-N-ethylcarboxamidoadenosine from recombinant human adenosine receptor A2A expressed in HEK293 cell membranes at 10 uM after 60 mins by liquid scintillation counting method relative to control.
Series [1] in a line: Metabolic stability in human plasma assessed as compound remaining measured after 120 mins. The class given is ADME, cell-free. The settings on record: read-out: Stability.
A short description of series [2]: Stability of compound in pH 6.5 fasted state simulated intestinal fluid assessed as compound remaining measured after 2 hrs. It counts as ADME. The settings on record: simulated gi fluid, pH 6.5, 2 h.
The target in a further series is Cytochrome P450 1A2 (Homo sapiens, UniProt P05177). Put plainly: Inhibition of CYP1A2 (unknown origin). The class given is ADME.
Sequence of Cytochrome P450 1A2 (P05177 whole entry): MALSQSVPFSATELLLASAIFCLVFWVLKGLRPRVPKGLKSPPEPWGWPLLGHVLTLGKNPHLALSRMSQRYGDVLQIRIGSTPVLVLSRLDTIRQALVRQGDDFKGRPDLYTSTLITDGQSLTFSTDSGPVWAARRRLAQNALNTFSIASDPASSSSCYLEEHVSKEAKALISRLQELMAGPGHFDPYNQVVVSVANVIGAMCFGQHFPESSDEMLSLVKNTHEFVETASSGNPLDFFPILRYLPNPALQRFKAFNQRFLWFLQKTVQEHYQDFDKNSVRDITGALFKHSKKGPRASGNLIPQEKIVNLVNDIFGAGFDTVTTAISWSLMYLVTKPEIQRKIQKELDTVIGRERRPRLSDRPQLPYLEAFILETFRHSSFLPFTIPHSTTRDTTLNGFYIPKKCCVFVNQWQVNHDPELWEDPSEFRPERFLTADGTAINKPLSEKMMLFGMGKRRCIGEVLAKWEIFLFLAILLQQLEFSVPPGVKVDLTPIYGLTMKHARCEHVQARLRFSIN
A further series addresses Cytochrome P450 2C19 (Homo sapiens, UniProt P33261). Briefly: Inhibition of CYP2C19 (unknown origin). The class given is ADME.
The target of the next series is Cytochrome P450 2D6 (Homo sapiens, UniProt P10635). Briefly: Inhibition of CYP2D6 (unknown origin). The class given is ADME.
Sequence of Cytochrome P450 2D6 (P10635 whole entry): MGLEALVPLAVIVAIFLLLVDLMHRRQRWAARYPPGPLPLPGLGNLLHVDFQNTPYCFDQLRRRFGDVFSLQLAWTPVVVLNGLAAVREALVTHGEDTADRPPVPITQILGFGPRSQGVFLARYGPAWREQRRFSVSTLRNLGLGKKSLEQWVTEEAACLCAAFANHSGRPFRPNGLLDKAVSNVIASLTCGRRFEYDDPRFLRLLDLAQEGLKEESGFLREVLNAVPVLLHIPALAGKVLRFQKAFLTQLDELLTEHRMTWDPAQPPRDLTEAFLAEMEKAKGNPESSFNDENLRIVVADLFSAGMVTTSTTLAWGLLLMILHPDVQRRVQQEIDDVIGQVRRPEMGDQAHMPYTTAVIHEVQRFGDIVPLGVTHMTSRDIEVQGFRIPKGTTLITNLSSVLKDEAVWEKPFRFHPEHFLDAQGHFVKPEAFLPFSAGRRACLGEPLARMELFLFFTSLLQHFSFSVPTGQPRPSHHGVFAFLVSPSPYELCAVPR
The next series addresses Cytochrome P450 3A4 (Homo sapiens, UniProt P08684). Put plainly: Inhibition of CYP3A4 (unknown origin). It counts as ADME.
Series [3] concerns the target Sodium-dependent dopamine transporter (Homo sapiens, UniProt Q01959). Briefly: Inhibition of human dopamine transporter expressed in HEK293 cells assessed as inhibition of dopamine uptake measured after 30 mins by fluorescence analysis. The class given is cell-based.
Series [4] deals with T1, 5-hydroxytryptamine receptor 2A (Homo sapiens, UniProt P28223). Put plainly: Antagonist activity at human 5-HT2AR expressed in Flp-In HEK cells assessed as inhibition of serotonin induced calcium mobilization at 10 uM preincubated for 5 to 10 mins followed by serotonin addition by Fluo-4 dye based FLIPR assay relative to control. The class given is functional, cell-based. The settings on record: HEK293. On the technique in general: Calcium assays in cells follow changes in intracellular calcium, usually with a dye or a luminescent sensor.
T1 sequence (P28223 whole entry): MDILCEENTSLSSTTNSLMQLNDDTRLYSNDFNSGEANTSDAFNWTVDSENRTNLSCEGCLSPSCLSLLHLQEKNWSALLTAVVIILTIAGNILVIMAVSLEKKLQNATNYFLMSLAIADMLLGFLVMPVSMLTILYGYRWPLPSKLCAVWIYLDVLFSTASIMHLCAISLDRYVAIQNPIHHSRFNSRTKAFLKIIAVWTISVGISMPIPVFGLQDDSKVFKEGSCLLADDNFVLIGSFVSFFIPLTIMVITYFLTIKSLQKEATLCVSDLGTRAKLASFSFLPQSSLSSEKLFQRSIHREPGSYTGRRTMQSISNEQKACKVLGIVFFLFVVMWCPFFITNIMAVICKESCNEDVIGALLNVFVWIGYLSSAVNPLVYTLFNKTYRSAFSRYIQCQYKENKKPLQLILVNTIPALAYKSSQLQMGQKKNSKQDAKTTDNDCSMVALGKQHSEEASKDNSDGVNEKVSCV

The target in series [5] is T1, 5-hydroxytryptamine receptor 2A. Briefly: Agonist activity at human 5-HT2AR expressed in Flp-In HEK cells assessed as calcium mobilization at 10 uM measured for 2 mins by Fluo-4 dye based FLIPR assay. The settings on record: hek293, 2 min. The class given is cell-based.

Sequence of Adenosine receptor A2a (P29274 whole entry): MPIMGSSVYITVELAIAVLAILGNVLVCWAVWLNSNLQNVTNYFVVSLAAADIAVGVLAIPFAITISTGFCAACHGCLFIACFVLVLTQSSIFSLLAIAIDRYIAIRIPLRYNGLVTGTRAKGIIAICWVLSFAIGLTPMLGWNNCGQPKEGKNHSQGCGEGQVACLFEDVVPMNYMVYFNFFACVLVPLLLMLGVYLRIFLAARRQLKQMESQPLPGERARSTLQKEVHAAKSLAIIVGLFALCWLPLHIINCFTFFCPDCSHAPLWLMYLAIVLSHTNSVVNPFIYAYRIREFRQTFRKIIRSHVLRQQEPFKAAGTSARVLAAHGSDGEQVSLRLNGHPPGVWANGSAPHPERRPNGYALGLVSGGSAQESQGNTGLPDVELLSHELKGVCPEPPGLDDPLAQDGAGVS
Sequence of Cytochrome P450 2C19 (P33261 whole entry): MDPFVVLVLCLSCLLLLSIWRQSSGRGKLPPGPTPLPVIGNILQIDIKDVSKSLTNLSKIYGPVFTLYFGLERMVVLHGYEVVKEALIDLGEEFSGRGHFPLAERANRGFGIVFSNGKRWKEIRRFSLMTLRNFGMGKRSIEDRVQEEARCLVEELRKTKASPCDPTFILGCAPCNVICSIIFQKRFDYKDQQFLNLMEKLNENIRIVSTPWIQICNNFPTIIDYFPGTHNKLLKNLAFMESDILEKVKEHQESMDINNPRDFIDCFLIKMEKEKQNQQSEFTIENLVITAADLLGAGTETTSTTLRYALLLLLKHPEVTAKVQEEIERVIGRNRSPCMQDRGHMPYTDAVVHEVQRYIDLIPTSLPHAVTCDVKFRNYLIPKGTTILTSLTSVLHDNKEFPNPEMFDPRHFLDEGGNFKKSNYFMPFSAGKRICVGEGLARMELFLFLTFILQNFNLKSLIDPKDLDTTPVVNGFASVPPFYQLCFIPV
Sequence of Cytochrome P450 3A4 (P08684 whole entry): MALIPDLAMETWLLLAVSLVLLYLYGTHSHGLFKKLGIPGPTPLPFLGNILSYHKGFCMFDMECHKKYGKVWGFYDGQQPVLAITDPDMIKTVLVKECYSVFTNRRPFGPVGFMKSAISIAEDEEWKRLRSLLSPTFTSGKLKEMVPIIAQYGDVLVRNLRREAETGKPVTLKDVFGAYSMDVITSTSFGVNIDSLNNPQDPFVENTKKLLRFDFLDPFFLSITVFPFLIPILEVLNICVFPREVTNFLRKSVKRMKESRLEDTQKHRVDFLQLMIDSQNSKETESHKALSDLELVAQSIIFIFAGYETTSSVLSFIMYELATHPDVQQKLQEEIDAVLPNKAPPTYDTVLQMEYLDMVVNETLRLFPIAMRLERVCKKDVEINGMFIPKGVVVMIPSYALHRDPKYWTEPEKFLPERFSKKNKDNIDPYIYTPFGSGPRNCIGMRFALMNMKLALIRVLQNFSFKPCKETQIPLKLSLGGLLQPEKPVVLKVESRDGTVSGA
Sequence of Sodium-dependent dopamine transporter (Q01959 whole entry): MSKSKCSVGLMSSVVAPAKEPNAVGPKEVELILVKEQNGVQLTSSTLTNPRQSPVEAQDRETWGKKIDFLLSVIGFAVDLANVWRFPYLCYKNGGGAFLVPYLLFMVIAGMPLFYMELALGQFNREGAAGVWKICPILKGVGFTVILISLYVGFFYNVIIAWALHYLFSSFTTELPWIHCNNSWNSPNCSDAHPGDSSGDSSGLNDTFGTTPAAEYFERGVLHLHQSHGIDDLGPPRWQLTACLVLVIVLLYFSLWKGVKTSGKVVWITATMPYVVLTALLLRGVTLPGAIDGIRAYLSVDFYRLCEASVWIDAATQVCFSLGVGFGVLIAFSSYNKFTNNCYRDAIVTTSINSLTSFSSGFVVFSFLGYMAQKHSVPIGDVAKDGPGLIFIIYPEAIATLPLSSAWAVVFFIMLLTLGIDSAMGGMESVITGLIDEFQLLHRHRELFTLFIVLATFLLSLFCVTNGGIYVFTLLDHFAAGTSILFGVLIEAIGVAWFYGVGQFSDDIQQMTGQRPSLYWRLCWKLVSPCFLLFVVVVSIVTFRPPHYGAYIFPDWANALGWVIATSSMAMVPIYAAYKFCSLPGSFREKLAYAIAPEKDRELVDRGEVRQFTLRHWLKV

As to `COC(=O)[C@@]12C[C@@H]1[C@@H](n1cnc3c(NC(C4CC4)C4CC4)nc(Cl)nc31)[C@H](O)[C@@H]2O`, on Adenosine receptor A2a, the inhibition came out at 33%. In addition, the remaining at 2 h in [1] is 95.3 to 100%. For the same compound, in series [2], the Stability is on record as 97%.
In the case of `CNC(=O)[C@@]12C[C@@H]1[C@@H](n1cnc3c(NC(C4CC4)C4CC4)nc(Cl)nc31)[C@H](O)[C@@H]2O`, in series [1], the remaining at 2 h is 100 to 104%. Moreover, the IC50 against Cytochrome P450 1A2, on Cytochrome P450 2C19, against Cytochrome P450 2D6 and against Cytochrome P450 3A4 was more than 30 µM each time.
For the compound `OC[C@@]12C[C@@H]1[C@@H](n1cnc3c(NC(C4CC4)C4CC4)nc(Cl)nc31)[C@H](O)[C@@H]2O`, in series [3], the Ki amounted to 4.8 µM.
As for `CCOC(=O)[C@@]12C[C@@H]1[C@@H](n1cnc3c(NC(C4CC4)C4CC4)nc(Cl)nc31)[C@H](O)[C@@H]2O`, in series [4], the inhibition is more than 10%. The Activity in series [5] is listed as more than 10%.

A word on the inhibition: it is the share of the control response that was lost under treatment. As a reminder, the IC50 is the midpoint of a concentration-inhibition curve. A lower IC50 goes with higher potency. As usually defined, the Ki is a dissociation constant, usually derived from enzyme kinetics or from competition with a known ligand.
